Measurements published in PubChem BioAssay AID1745844 (Carcinogenic Potency Database (CPDB), 2022).
Values joined by “and” are separate entries in the source; they are usually repeats but may differ in a detail not shown here. Identical values can stand only once. Active and inactive are the calls of the source. The rule behind the calls is not given here.

Tested on: rodent lifetime carcinogenesis bioassay, tumor incidence TD50
Experiment: carcinogenic potency in animals, long-term in vivo studies, CPDB compilation (AID 1745844)

In the case of `FC(Cl)C(F)(F)F` (centres undefined), the TD50 (rat, strain Charles River CD (Sprague-Dawley), females, inhaled, site: mammary gland, lesion: fibroadenoma, dosed 104 weeks, study length 104 weeks) is reported as 56300 mg/kg/day (inactive) and the TD50 (rat, strain Charles River CD (Sprague-Dawley), females, inhaled, site: mammary gland, lesion: several types, types named in the paper, dosed 104 weeks, study length 104 weeks) is reported as 54000 mg/kg/day (inactive).
In the case of `CN(CC(O)CO)N=O` (centres undefined), the TD50 (hamster, strain Syrian Golden, females, by gavage, site: any site (literature study), lesion: several types, types named in the paper, dosed 41 weeks, study length 81 weeks) is reported as 0.509 mg/kg/day, the TD50 (hamster, strain Syrian Golden, females, by gavage, site: liver, lesion: all vascular tumors, dosed 41 weeks, study length 81 weeks) is reported as 12.7 mg/kg/day (inactive) and the TD50 (hamster, strain Syrian Golden, females, by gavage, site: nasal mucosa, lesion: carcinoma, dosed 41 weeks, study length 81 weeks) is reported as 1.51 mg/kg/day. For the same molecule, the TD50 (hamster, strain Syrian Golden, females, by gavage, site: nasal mucosa, lesion: several types, types named in the paper, dosed 41 weeks, study length 81 weeks) was 0.94 mg/kg/day, the TD50 (rat, strain Fischer 344, females, in drinking water, site: esophagus, lesion: several types, types named in the paper, dosed 40 weeks, study length 110 weeks) was 1.48 mg/kg/day and the TD50 (rat, strain Fischer 344, females, in drinking water, site: liver, lesion: hepatocellular carcinoma, dosed 40 weeks, study length 110 weeks) was 3.13 mg/kg/day. For the same molecule, the TD50 (rat, strain Fischer 344, females, in drinking water, site: liver, lesion: neoplastic nodule, dosed 40 weeks, study length 110 weeks) was 1.01 mg/kg/day, the TD50 (rat, strain Fischer 344, females, in drinking water, site: liver, lesion: several types, types named in the paper, dosed 40 weeks, study length 110 weeks) was 0.67 mg/kg/day and the TD50 (rat, strain Fischer 344, females, in drinking water, site: lung, lesion: several types, types named in the paper, dosed 40 weeks, study length 110 weeks) was 0.646 mg/kg/day. The TD50 (rat, strain Fischer 344, females, in drinking water, site: nasal cavity, lesion: several types, types named in the paper, dosed 40 weeks, study length 110 weeks) was 1.48 mg/kg/day.
In the case of `OCC(O)[C@@H](O)[C@H](O)[C@H](O)CO[C@H]1O[C@H](CO)[C@@H](O)[C@H](O)[C@H]1O` (some centres undefined), the TD50 (mouse, strain Cpb:Swiss random, females, in feed, site: any site (literature study), lesion: one or several types, types not named, dosed 104 weeks, study length 104 weeks) is reported as 83400 mg/kg/day (inactive), the carcinogen call (mouse, strain Cpb:Swiss random, females, in feed, site: liver, lesion: one or several types, types not named, dosed 104 weeks, study length 104 weeks) is reported as “negative (inactive)” and the TD50 (mouse, strain Cpb:Swiss random, females, in feed, site: lung, lesion: alveolar-cell tumor, dosed 104 weeks, study length 104 weeks) is reported as 92600 mg/kg/day (inactive). The carcinogen call (mouse, strain Cpb:Swiss random, males, in feed, site: any site (literature study), lesion: one or several types, types not named, dosed 94 weeks, study length 94 weeks) was “negative (inactive)”, the carcinogen call (mouse, strain Cpb:Swiss random, males, in feed, site: liver, lesion: hepatocellular carcinoma, dosed 94 weeks, study length 94 weeks) was “negative (inactive)” and the carcinogen call (mouse, strain Cpb:Swiss random, males, in feed, site: liver, lesion: neoplastic nodule, dosed 94 weeks, study length 94 weeks) was “negative (inactive)”. The TD50 (mouse, strain Cpb:Swiss random, males, in feed, site: lung, lesion: alveolar-cell tumor, dosed 94 weeks, study length 94 weeks) was 26200 mg/kg/day (inactive).
`C1CCC(C(CC2CCCCN2)C2CCCCC2)CC1` (centres undefined) was tested, and the carcinogen call (rat, strain Sprague-Dawley, females, in feed, site: liver, lesion: one or several types, types not named, dosed 52 weeks, study length 52 weeks) was “negative (inactive)”, the carcinogen call (rat, strain Sprague-Dawley, females, in feed, site: liver, lesion: one or several types, types not named, dosed 52 weeks, study length 56 weeks) was “negative (inactive)” and the carcinogen call (rat, strain Sprague-Dawley, males, in feed, site: liver, lesion: one or several types, types not named, dosed 52 weeks, study length 52 weeks) was “negative (inactive)”. The carcinogen call (rat, strain Sprague-Dawley, males, in feed, site: liver, lesion: one or several types, types not named, dosed 52 weeks, study length 56 weeks) was “negative (inactive)”.
`CC(Oc1cc(Cl)c(Cl)cc1Cl)C(=O)O` (centres undefined) was tested, and the carcinogen call (mouse, strain B6AKF1, females, oral dosing, site: any site (literature study), lesion: several types, types named in the paper, dosed 76 weeks, study length 76 weeks) was “negative (inactive)”, the carcinogen call (mouse, strain B6AKF1, females, oral dosing, site: liver, lesion: hepatoma, dosed 76 weeks, study length 76 weeks) was “negative (inactive)” and the carcinogen call (mouse, strain B6AKF1, females, oral dosing, site: lung, lesion: adenoma, dosed 76 weeks, study length 76 weeks) was “negative (inactive)”. The carcinogen call (mouse, strain B6AKF1, males, oral dosing, site: any site (literature study), lesion: several types, types named in the paper, dosed 76 weeks, study length 76 weeks) was “negative (inactive)”, the carcinogen call (mouse, strain B6AKF1, males, oral dosing, site: liver, lesion: hepatoma, dosed 76 weeks, study length 76 weeks) was “negative (inactive)” and the carcinogen call (mouse, strain B6AKF1, males, oral dosing, site: lung, lesion: adenoma, dosed 76 weeks, study length 76 weeks) was “negative (inactive)”. For the same molecule, the TD50 (mouse, strain B6C3F1, females, oral dosing, site: any site (literature study), lesion: several types, types named in the paper, dosed 76 weeks, study length 76 weeks) was 52.6 mg/kg/day (inactive), the carcinogen call (mouse, strain B6C3F1, females, oral dosing, site: liver, lesion: hepatoma, dosed 76 weeks, study length 76 weeks) was “negative (inactive)” and the carcinogen call (mouse, strain B6C3F1, females, oral dosing, site: lung, lesion: several types, types named in the paper, dosed 76 weeks, study length 76 weeks) was “negative (inactive)”. For the same molecule, the TD50 (mouse, strain B6C3F1, males, oral dosing, site: any site (literature study), lesion: several types, types named in the paper, dosed 76 weeks, study length 76 weeks) was 9.07 mg/kg/day (inactive), the TD50 (mouse, strain B6C3F1, males, oral dosing, site: liver, lesion: hepatoma, dosed 76 weeks, study length 76 weeks) was 16.6 mg/kg/day (inactive) and the TD50 (mouse, strain B6C3F1, males, oral dosing, site: lung, lesion: adenoma, dosed 76 weeks, study length 76 weeks) was 95.2 mg/kg/day (inactive).
`NNc1ccccc1` gave a TD50 (mouse, strain Swiss albino, females, in drinking water, site: blood vessels, lesion: angioma, dosed 112 weeks, study length 112 weeks) of 147 mg/kg/day, a TD50 (mouse, strain Swiss albino, females, in drinking water, site: blood vessels, lesion: angiosarcoma, dosed 112 weeks, study length 112 weeks) of 165 mg/kg/day and a TD50 (mouse, strain Swiss albino, females, in drinking water, site: blood vessels, lesion: several types, types named in the paper, dosed 112 weeks, study length 112 weeks) of 72.1 mg/kg/day. For the same molecule, the TD50 (mouse, strain Swiss albino, females, in drinking water, site: liver, lesion: angioma, dosed 112 weeks, study length 112 weeks) was 165 mg/kg/day, the TD50 (mouse, strain Swiss albino, females, in drinking water, site: liver, lesion: angiosarcoma, dosed 112 weeks, study length 112 weeks) was 165 mg/kg/day and the TD50 (mouse, strain Swiss albino, females, in drinking water, site: liver, lesion: several types, types named in the paper, dosed 112 weeks, study length 112 weeks) was 68.6 mg/kg/day. The carcinogen call (mouse, strain Swiss albino, females, in drinking water, site: lung, lesion: several types, types named in the paper, dosed 112 weeks, study length 112 weeks) was “negative (inactive)”, the TD50 (mouse, strain Swiss albino, males, in drinking water, site: blood vessels, lesion: several types, types named in the paper, dosed 112 weeks, study length 112 weeks) was 70.6 mg/kg/day and the TD50 (mouse, strain Swiss albino, males, in drinking water, site: liver, lesion: several types, types named in the paper, dosed 112 weeks, study length 112 weeks) was 83.9 mg/kg/day. The carcinogen call (mouse, strain Swiss albino, males, in drinking water, site: lung, lesion: several types, types named in the paper, dosed 112 weeks, study length 112 weeks) was “negative (inactive)” and the carcinogen call (mouse, strain Swiss, females, by gavage, site: lung, lesion: one or several types, types not named, dosed 39 weeks, study length 55 weeks) was “negative (inactive)”.
With `Cc1ccc(N)cc1N` the TD50 (mouse, strain B6C3F1, females, in feed, site: all sites, lesion: leukemia + lymphoma, dosed 101 weeks, study length 101 weeks) was 10.6 mg/kg/day, the TD50 (mouse, strain B6C3F1, females, in feed, site: any site (literature study), lesion: several types, types named in the paper, dosed 101 weeks, study length 101 weeks) was 8.64 mg/kg/day and the TD50 (mouse, strain B6C3F1, females, in feed, site: liver, lesion: hepatocellular adenoma + hepatocellular carcinoma + neoplastic nodule, dosed 101 weeks, study length 101 weeks) was 26.7 mg/kg/day. It also gave a TD50 (mouse, strain B6C3F1, females, in feed, site: liver, lesion: hepatocellular carcinoma, dosed 101 weeks, study length 101 weeks) of 26.7 mg/kg/day, a TD50 (mouse, strain B6C3F1, males, in feed, site: any site (literature study), lesion: several types, types named in the paper, dosed 101 weeks, study length 101 weeks) of 105 mg/kg/day and a TD50 (mouse, strain B6C3F1, males, in feed, site: lung, lesion: alveolar/bronchiolar adenoma + alveolar/bronchiolar carcinoma, dosed 101 weeks, study length 101 weeks) of 35.8 mg/kg/day. For the same molecule, the TD50 (mouse, strain B6C3F1, males, in feed, site: lung, lesion: alveolar/bronchiolar carcinoma, dosed 101 weeks, study length 101 weeks) was 35.8 mg/kg/day (inactive), the TD50 (mouse, strain CD-1 HaM/ICR, females, in feed, site: any site (literature study), lesion: several types, types named in the paper, dosed 77 weeks, study length 90 weeks) was 100 mg/kg/day and the TD50 (mouse, strain CD-1 HaM/ICR, females, in feed, site: liver, lesion: hepatoma, dosed 77 weeks, study length 90 weeks) was 206 mg/kg/day. For the same molecule, the TD50 (mouse, strain CD-1 HaM/ICR, females, in feed, site: liver, lesion: several types, types named in the paper, dosed 77 weeks, study length 90 weeks) was 180 mg/kg/day, the TD50 (mouse, strain CD-1 HaM/ICR, females, in feed, site: lung, lesion: several types, types named in the paper, dosed 77 weeks, study length 90 weeks) was 72 mg/kg/day (inactive) and the TD50 (mouse, strain CD-1 HaM/ICR, males, in feed, site: all sites, lesion: all vascular tumors, dosed 77 weeks, study length 90 weeks) was 317 mg/kg/day. For the same molecule, the TD50 (mouse, strain CD-1 HaM/ICR, males, in feed, site: liver, lesion: hepatoma, dosed 77 weeks, study length 90 weeks) was 201 mg/kg/day, the TD50 (mouse, strain CD-1 HaM/ICR, males, in feed, site: liver, lesion: several types, types named in the paper, dosed 77 weeks, study length 90 weeks) was 191 mg/kg/day and the carcinogen call (mouse, strain CD-1 HaM/ICR, males, in feed, site: lung, lesion: several types, types named in the paper, dosed 77 weeks, study length 90 weeks) was “negative (inactive)”. For the same molecule, the TD50 (rat, strain Charles River CD (Sprague-Dawley), males, in feed, site: any site (literature study), lesion: several types, types named in the paper, dosed 64 weeks, study length 73 weeks) was 2.98 mg/kg/day, the TD50 (rat, strain Charles River CD (Sprague-Dawley), males, in feed, site: liver, lesion: hepatoma, dosed 64 weeks, study length 73 weeks) was 22.2 mg/kg/day and the TD50 (rat, strain Charles River CD (Sprague-Dawley), males, in feed, site: liver, lesion: several types, types named in the paper, dosed 64 weeks, study length 73 weeks) was 26.2 mg/kg/day. The TD50 (rat, strain Charles River CD (Sprague-Dawley), males, in feed, site: subcutaneous tissue, lesion: fibroma, dosed 64 weeks, study length 73 weeks) was 5.42 mg/kg/day and 4.42 mg/kg/day, the TD50 (rat, strain Fischer 344, females, in feed, site: any site (literature study), lesion: several types, types named in the paper, dosed 93 weeks, study length 103 weeks) was 1.46 mg/kg/day and the TD50 (rat, strain Fischer 344, females, in feed, site: liver + mammary gland, lesion: hepatocellular carcinoma + neoplastic nodule + adenoma + carcinoma, dosed 93 weeks, study length 103 weeks) was 1.43 mg/kg/day. It also gave a TD50 (rat, strain Fischer 344, females, in feed, site: liver, lesion: hepatocellular adenoma + hepatocellular carcinoma + neoplastic nodule, dosed 93 weeks, study length 103 weeks) of 58 mg/kg/day, a TD50 (rat, strain Fischer 344, females, in feed, site: liver, lesion: hepatocellular carcinoma + neoplastic nodule, dosed 93 weeks, study length 103 weeks) of 58 mg/kg/day and a TD50 (rat, strain Fischer 344, females, in feed, site: mammary gland, lesion: adenoma + carcinoma, dosed 93 weeks, study length 103 weeks) of 5.54 mg/kg/day. The TD50 (rat, strain Fischer 344, females, in feed, site: mammary gland, lesion: adenoma, dosed 93 weeks, study length 103 weeks) was 1.46 mg/kg/day, the TD50 (rat, strain Fischer 344, females, in feed, site: mammary gland, lesion: carcinoma, dosed 93 weeks, study length 103 weeks) was 8.98 mg/kg/day and the TD50 (rat, strain Fischer 344, females, in feed, site: subcutaneous tissue, lesion: fibroma, dosed 93 weeks, study length 103 weeks) was 16.4 mg/kg/day. It also gave a TD50 (rat, strain Fischer 344, males, in feed, site: all sites, lesion: mesothelioma, dosed 91 weeks, study length 103 weeks) of 6.81 mg/kg/day, a TD50 (rat, strain Fischer 344, males, in feed, site: any site (literature study), lesion: several types, types named in the paper, dosed 91 weeks, study length 103 weeks) of 0.991 mg/kg/day and a TD50 (rat, strain Fischer 344, males, in feed, site: liver, lesion: hepatocellular adenoma + hepatocellular carcinoma + neoplastic nodule, dosed 91 weeks, study length 103 weeks) of 8.11 mg/kg/day. It also gave a TD50 (rat, strain Fischer 344, males, in feed, site: liver, lesion: hepatocellular carcinoma + neoplastic nodule, dosed 91 weeks, study length 103 weeks) of 8.11 mg/kg/day, a TD50 (rat, strain Fischer 344, males, in feed, site: subcutaneous tissue, lesion: fibroma, dosed 91 weeks, study length 103 weeks) of 2.52 mg/kg/day and a TD50 (rat, strain Fischer 344, males, in feed, site: subcutaneous tissue, lesion: lipoma, dosed 91 weeks, study length 103 weeks) of 13.2 mg/kg/day.
